20 compounds from US20230092890A1, “1, 3, 4-Oxadiazole derivative compounds as histone deacetylase 6 inhibitor, and the pharmaceutical composition comprising the same” (Chong Kun Dang Pharmaceutical Corp., priority 2019, published 2023) can be followed below.

In one test the target is T1, HDAC6 human recombinant (Homo sapiens, UniProt Q9UBN7).
T1 construct: purchased Calbiochem 382180
T1 sequence (Q9UBN7 1-1215): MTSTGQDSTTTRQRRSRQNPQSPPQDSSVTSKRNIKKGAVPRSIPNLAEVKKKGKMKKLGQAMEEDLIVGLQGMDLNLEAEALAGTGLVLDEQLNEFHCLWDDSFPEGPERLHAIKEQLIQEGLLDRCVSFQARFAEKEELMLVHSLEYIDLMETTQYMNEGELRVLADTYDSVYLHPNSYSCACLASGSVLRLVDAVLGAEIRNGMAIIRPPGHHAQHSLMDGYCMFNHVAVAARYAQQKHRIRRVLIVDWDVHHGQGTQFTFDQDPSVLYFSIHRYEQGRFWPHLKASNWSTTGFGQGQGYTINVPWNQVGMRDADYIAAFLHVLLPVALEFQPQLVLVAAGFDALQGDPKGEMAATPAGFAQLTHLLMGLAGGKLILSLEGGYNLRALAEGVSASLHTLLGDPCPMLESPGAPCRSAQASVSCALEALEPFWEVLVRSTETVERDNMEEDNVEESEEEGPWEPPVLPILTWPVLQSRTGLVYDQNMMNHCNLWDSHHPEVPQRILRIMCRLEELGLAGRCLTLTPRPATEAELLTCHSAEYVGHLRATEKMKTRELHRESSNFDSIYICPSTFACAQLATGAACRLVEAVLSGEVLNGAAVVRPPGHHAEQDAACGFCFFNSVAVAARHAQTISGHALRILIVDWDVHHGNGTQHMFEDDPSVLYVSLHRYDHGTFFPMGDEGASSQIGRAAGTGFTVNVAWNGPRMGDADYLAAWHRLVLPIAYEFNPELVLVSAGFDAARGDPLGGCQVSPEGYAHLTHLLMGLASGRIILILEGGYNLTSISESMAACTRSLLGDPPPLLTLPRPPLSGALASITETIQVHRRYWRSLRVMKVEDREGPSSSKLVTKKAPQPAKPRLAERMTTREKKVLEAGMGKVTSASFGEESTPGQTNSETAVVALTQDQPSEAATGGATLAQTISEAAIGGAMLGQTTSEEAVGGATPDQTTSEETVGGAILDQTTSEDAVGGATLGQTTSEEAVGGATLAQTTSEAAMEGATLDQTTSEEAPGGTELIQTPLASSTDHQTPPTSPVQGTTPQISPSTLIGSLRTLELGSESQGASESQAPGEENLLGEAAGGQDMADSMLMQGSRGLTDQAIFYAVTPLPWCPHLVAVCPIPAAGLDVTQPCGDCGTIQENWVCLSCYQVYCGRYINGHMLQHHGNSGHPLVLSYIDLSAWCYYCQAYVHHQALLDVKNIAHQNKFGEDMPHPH
The test can be described thus: HDAC enzyme activity inhibition (in vitro), HDAC6 assay. It counts as biochemical. Particulars: samples at 0.1, 1, 10, 100 and 1000 nM; 37° C. 60 minutes; fluorescence Ex 390, Em 460; read-out: HDAC6 IC50. In short, it runs like this: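 HDAC6 human recombinant enzyme with fluorimetric substrate; […]. Reaction 60 min at 37° C, then developer 30 min at 37° C; fluorescence read at Ex 390/Em 460.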

For the next test, the target named is T2, HDAC1 (Homo sapiens, UniProt Q13547).
T2 construct: purchased Enzolifesciences BML-AK511
The test can be described thus: HDAC enzyme activity inhibition (in vitro), HDAC1 Fluorimetric Drug Discovery Assay Kit. As to conditions: samples at 100, 1000 and 10000 nM; 37° C. 60 minutes; fluorescence Ex 390, Em 460; read-out: HDAC1 IC50. The format is biochemical. In short, it runs like this:
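HDAC1 was tested at 100, 1000 and 10000 nM and recombinant human HDAC6 at 0.1, 1, 10, 100 and 1000 nM. Enzyme reactions ran 60 min at 37° C, then developer was added for 30 min at 37° C, and fluorescence (Ex 390, Em 460) was read.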

T2 sequence (Q13547 whole entry): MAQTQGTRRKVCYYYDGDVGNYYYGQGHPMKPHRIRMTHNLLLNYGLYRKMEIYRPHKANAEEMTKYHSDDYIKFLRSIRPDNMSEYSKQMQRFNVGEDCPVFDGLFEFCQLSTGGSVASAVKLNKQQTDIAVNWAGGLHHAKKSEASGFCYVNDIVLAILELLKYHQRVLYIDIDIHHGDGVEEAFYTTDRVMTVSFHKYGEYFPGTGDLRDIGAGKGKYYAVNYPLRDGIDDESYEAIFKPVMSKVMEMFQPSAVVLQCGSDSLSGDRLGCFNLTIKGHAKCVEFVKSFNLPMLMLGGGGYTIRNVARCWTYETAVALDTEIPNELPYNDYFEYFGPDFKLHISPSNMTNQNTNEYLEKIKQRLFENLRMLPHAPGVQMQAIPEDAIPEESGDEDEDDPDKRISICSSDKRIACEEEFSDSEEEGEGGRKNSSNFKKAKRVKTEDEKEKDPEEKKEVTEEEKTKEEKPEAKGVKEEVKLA

On to `CN1CCC(n2c(=O)n(Cc3ccc(-c4nnc(C(F)F)o4)cc3)c3cc(Br)ccc32)CC1` [Compound 126, 5-bromo-3-(4-(5-(difluoromethyl)-1,3,4-oxadiazole-2-yl)benzyl)-1-(1-methylpiperidine-4-yl)-1,3-dihydro-2H-benzo[d]imidazole-2-one], for which the concentration for half-maximal inhibition (IC50) at HDAC6 human recombinant was 29 nM; on HDAC1 it was above 10000 nM.
Regarding `CN1CCC(n2c(=O)n(Cc3ccc(-c4nnc(C(F)F)o4)cc3)c3cc(-c4cc(F)ccc4F)ccc32)CC1` [Compound 128], the values for the half-inhibitory concentration (IC50) on HDAC6 human recombinant and on HDAC1 were 798 nM and above 10000 nM, respectively.
The corresponding values for `CN1CCC(n2c(=O)n(Cc3ccc(-c4nnc(C(F)F)o4)cc3)c3cc(-c4ccc(C(F)(F)F)cc4)ccc32)CC1` [Compound 129] are above 3000 nM and above 10000 nM.
The corresponding values for `Cc1ccc(-c2ccc3c(c2)n(Cc2ccc(-c4nnc(C(F)F)o4)cc2)c(=O)n3C2CCN(C)CC2)o1` [Compound 130] are 288 nM and above 10000 nM.
The corresponding values for `Cc1noc(C)c1-c1ccc2c(c1)n(Cc1ccc(-c3nnc(C(F)F)o3)cc1)c(=O)n2C1CCN(C)CC1` [Compound 131, 3-(4-(5-(difluoromethyl)-1,3,4-oxadiazole-2-yl)benzyl)-5-(3,5-dimethylisooxazole-4-yl)-1-(1-methylpiperidine-4-yl)-1,3-dihydro-2H-benzo[d]imidazole-2-one] are 606 nM and above 10000 nM.
`CN1CCC(n2c(=O)n(Cc3ccc(-c4nnc(C(F)F)o4)cc3)c3cc(-c4cccnc4)ccc32)CC1` [Compound 132, 3-(4-(5-(difluoromethyl)-1,3,4-oxadiazole-2-yl)benzyl)-1-(1-methylpiperidine-4-yl)-5-(pyridine-3-yl)-1,3-dihydro-2H-benzo[d]imidazole-2-one]: the IC50 at HDAC6 human recombinant was 281 nM; on HDAC1 it was above 10000 nM.
The corresponding values for `CN1CCC(n2c(=O)n(Cc3ccc(-c4nnc(C(F)F)o4)cn3)c3ccc(-c4cccc(F)c4)cc32)CC1` [Compound 133, 1-((5-(5-(difluoromethyl)-1,3,4-oxadiazole-2-yl)pyridine-2-yl)methyl)-5-(3-fluorophenyl)-3-(1-methylpiperidine-4-yl)-1,3-dihydro-2H-benzo[d]imidazole-2-one] are 20 nM and above 10000 nM.
With `CN1CCC(n2c(=O)n(Cc3ccc(-c4nnc(C(F)F)o4)cn3)c3ccc(-c4ccccc4F)cc32)CC1` [Compound 134, 1-((5-(5-(difluoromethyl)-1,3,4-oxadiazole-2-yl)pyridine-2-yl)methyl)-5-(2-fluorophenyl)-3-(1-methylpiperidine-4-yl)-1,3-dihydro-2H-benzo[d]imidazole-2-one], the results for the half-inhibitory concentration (IC50) at HDAC6 human recombinant and at HDAC1 were 20 nM and above 10000 nM, respectively.
The corresponding values for `CN1CCC(n2c(=O)n(Cc3ccc(-c4nnc(C(F)F)o4)cn3)c3ccc(-c4ccncc4)cc32)CC1` [Compound 135, 1-((5-(5-(difluoromethyl)-1,3,4-oxadiazole-2-yl)pyridine-2-yl)methyl)-3-(1-methylpiperidine-4-yl)-5-(pyridine-4-yl)-1,3-dihydro-2H-benzo[d]imidazole-2-one] are 19 nM and above 10000 nM.
For `CN1CCC(n2c(=O)n(Cc3ccc(-c4nnc(C(F)F)o4)cn3)c3ccc(-c4cccnc4)cc32)CC1` [Compound 136, 1-((5-(5-(difluoromethyl)-1,3,4-oxadiazole-2-yl)pyridine-2-yl)methyl)-3-(1-methylpiperidine-4-yl)-5-(pyridine-3-yl)-1,3-dihydro-2H-benzo[d]imidazole-2-one], the IC50 was 12 nM on HDAC6 human recombinant and above 10000 nM at HDAC1.
Take `CN1CCC(n2c(=O)n(Cc3ccc(-c4nnc(C(F)F)o4)cn3)c3ccc(-c4ccoc4)cc32)CC1` [Compound 137, 1-((5-(5-(difluoromethyl)-1,3,4-oxadiazole-2-yl)pyridine-2-yl)methyl)-5-(furan-3-yl)-3-(1-methylpiperidine-4-yl)-1,3-dihydro-2H-benzo[d]imidazole-2-one]: the IC50 at HDAC6 human recombinant was 19 nM; at HDAC1, above 10000 nM.
As to `CN1CCC(n2c(=O)n(Cc3ccc(-c4nnc(C(F)F)o4)cn3)c3ccc(-c4ccco4)cc32)CC1` [Compound 138, 1-((5-(5-(difluoromethyl)-1,3,4-oxadiazole-2-yl)pyridine-2-yl)methyl)-5-(furan-2-yl)-3-(1-methylpiperidine-4-yl)-1,3-dihydro-2H-benzo[d]imidazole-2-one], the half-maximal inhibitory concentration (IC50) at HDAC6 human recombinant was 19 nM; at HDAC1 it was above 10000 nM.
The corresponding values for `CN1CCC(n2c(=O)n(Cc3ccc(-c4nnc(C(F)F)o4)cc3F)c3ccc(-c4cccnc4)cc32)CC1` [Compound 139, 1-(4-(5-(difluoromethyl)-1,3,4-oxadiazole-2-yl)-2-fluorobenzyl)-3-(1-methylpiperidine-4-yl)-5-(pyridine-3-yl)-1,3-dihydro-2H-benzo[d]imidazole-2-one] are 31 nM and above 10000 nM.
For the compound `CN1CCC(n2c(=O)n(Cc3ccc(-c4nnc(C(F)F)o4)cc3F)c3ccc(-c4ccco4)cc32)CC1` [Compound 140, 1-(4-(5-(difluoromethyl)-1,3,4-oxadiazole-2-yl)-2-fluorobenzyl)-5-(furan-2-yl)-3-(1-methylpiperidine-4-yl)-1,3-dihydro-2H-benzo[d]imidazole-2-one], the IC50 on HDAC6 human recombinant was 54 nM; on HDAC1 it was above 10000 nM.
The corresponding values for `CN1CCC(n2c(=O)n(Cc3ccc(-c4nnc(C(F)F)o4)cn3)c3cc(Br)ccc32)CC1` [Compound 141, 5-bromo-3-((5-(5-(difluoromethyl)-1,3,4-oxadiazole-2-yl)pyridine-2-yl)methyl)-1-(1-methylpiperidine-4-yl)-1,3-dihydro-2H-benzo[d]imidazole-2-one] are 12 nM and above 10000 nM.
As to `Cn1c(=O)n(Cc2ccc(-c3nnc(C(F)F)o3)cn2)c2cc(F)ccc21` [Compound 142, 3-((5-(5-(difluoromethyl)-1,3,4-oxadiazole-2-yl)pyridine-2-yl)methyl)-5-fluoro-1-methy 1-1,3-dihydro-2H-benzo[d]imidazole-2-one], the half-maximal inhibitory concentration (IC50) was 18 nM at HDAC6 human recombinant and above 10000 nM on HDAC1.
Consider `Cn1c(=O)n(Cc2ccc(-c3nnc(C(F)F)o3)cc2F)c2cc(F)ccc21` [Compound 143, 3-(4-(5-(difluoromethyl)-1,3,4-oxadiazole-2-yl)-2-fluorobenzyl)-5-fluoro-1-methyl-1,3-dihydro-2H-benzo[d]imidazole-2-one], for which the 50% inhibitory concentration (IC50) on HDAC6 human recombinant is 71 nM; on HDAC1, above 10000 nM.
The corresponding values for `Cn1c(=O)n(Cc2ccc(-c3nnc(C(F)F)o3)cc2)c2cc(F)ccc21` [Compound 144, 3-(4-(5-(difluoromethyl)-1,3,4-oxadiazole-2-yl)benzyl)-5-fluoro-1-methyl-1,3-dihydro-2H-benzo[d]imidazole-2-one] are 77 nM and above 10000 nM.
The corresponding values for `CN1CCC(n2c(=O)n(Cc3ccc(-c4nnc(C(F)F)o4)cn3)c3cc(-c4cccnc4)ccc32)CC1` [Compound 145, 3-((5-(5-(difluoromethyl)-1,3,4-oxadiazole-2-yl)pyridine-2-yl)methyl)-1-(1-methylpiperidine-4-yl)-5-(pyridine-3-yl)-1,3-dihydro-2H-benzo[d]imidazole-2-one] are 315 nM and above 10000 nM.
For the compound `Cc1ccc(-c2ccc3c(c2)n(Cc2ccc(-c4nnc(C(F)F)o4)cn2)c(=O)n3C2CCN(C)CC2)o1` [Compound 146, 3-((5-(5-(difluoromethyl)-1,3,4-oxadiazole-2-yl)pyridine-2-yl)methyl)-5-(5-methylfuran-2-yl)-1-(1-methylpiperidine-4-yl)-1,3-dihydro-2H-benzo[d]imidazole-2-one], the IC50 was 130 nM at HDAC6 human recombinant and above 10000 nM at HDAC1.

What is called IC50 is the point on the concentration scale where inhibition reaches its midpoint.
